{"source": "patent US20180153879A1", "about": "“Solid Dispersion Comprising μ-Opioid Antagonists” (Sandoz AG, priority 2016, published 2018)", "origin": "cited, not measured here", "details": "free base form, exposure to air"}
{"molecule": "C=CCN1CC[C@]23c4c5ccc(O)c4O[C@H]2[C@@H](OCCOCCOCCOCCOCCOCCOCCOC)CC[C@@]3(O)[C@H]1C5", "note": "[naloxegol, (5α,6α)-17-allyl-6-(2,5,8,11,14,17,20-heptaoxadocosan-22-yloxy)-4,5-epoxymorphinan-3,14-diol]", "values": [{"measurement": "oxidative stability", "result": "can undergo oxidative degradation upon exposure to air"}]}
